Results published in patent US20130317029A1 (PORTOLA PHARMACEUTICALS, INC., priority 2010, published 2013).

Molecular target: T1, full length active recombinant SYK enzyme (Homo sapiens, UniProt P43405)
T1 construct: full length active recombinant SYK enzyme (Millipore, Calif.); purchased Millipore
Experiment: Inhibition of Syk tyrosine phosphorylation activity (LANCE TR-FRET kinase assay)
Format: biochemical
From the text: This example illustrates methods for evaluating the compounds of the invention, along with results obtained for such assays. The in vitro and in vivo human Syk activities of the inventive compounds can be determined by various procedures known in the art, such as a test for their ability to inhibit the activity of human plasma Syk. […] The IC50 value is the concentration (in nM) of the compound required to provide 50% inhibition of human Syk proteolytic activity.
Potency of candidate molecules for inhibiting Syk tyrosine phosphorylation activity is assessed by measuring the ability of a test compound to inhibit Syk-mediated tyrosine phosphorylation of a Syk-specific substrate.
SYK tyrosine phosphorylation activity is measured using the LANCE™ Technology developed by Perkin Elmer Life and Analytical Sciences (Boston, Mass.). LANCE™ refers to homogeneous time resolved fluorometry applications using techniques such as time-resolved fluorescence resonance energy transfer assay (TR-FRET) (see generally for procedures in Perkin Elmer Application Note—How to Optimize a Tyrosine Kinase Assay Using Time Resolved Fluorescence-Based LANCE Detection, wwww.perkinelmer.com/lifesciences). The assay principle involves detection of a phosphorylated substrate using energy transfer from a phosphospecific europium-labeled antibody to streptavidin-allophycocyanin as an acceptor.
To test the ability of candidate molecules to inhibit SYK tyrosine phosphorylation activity, molecules are reconstituted in 30% DMSO and serially diluted 1:3 with the final dilution containing DMSO in the absence of the candidate molecule. The final DMSO concentration in the assay is 3%. Kinase assays are performed as a two part reaction. The first reaction is a kinase reaction and which comprises of a candidate molecule, full length active recombinant SYK enzyme (Millipore, Calif.) and biotin-labeled SYK-specific substrate biotin-[…]-OH. The second reaction involves termination of the kinase reaction and the simultaneous addition of the detection reagents-europium-labeled anti-phosphotyrosine reagent (Eu-W1024-PY100, Perkin Elmer, Boston, Mass.) and Streptavidin-Allophycocyanin detection reagent (SA-APC, Prozyme, Calif.). The kinase reaction is performed in a black U-bottom 96-well microtitre plate. The final reaction volume is 50 μL and contains a final concentration of 1 nM active SYK enzyme, 550 nM SYK-substrate, and 100 μM ATP diluted in a buffer containing 50 mM Tris pH 7.5, 5 mM MgCl2, and 1 mM DTT. The reaction is allowed to proceed for 1 hour at room temperature. The quench buffer contains 100 mM Tris pH 7.5, 300 mM NaCl2, 20 mM EDTA, 0.02% Brij35, and 0.5% BSA. The detection reagents are added to the reaction mixture at the following dilutions-1:500 for Eu-W1024-PY100 and 1:250 for SA-APC. The kinase reaction is terminated by the addition of 50 μL quench buffer containing the detection reagents. The detection is allowed to proceed for 1 hr at room temperature. Detection of the phosphorlated substrate in the absence and presence of inhibitors is measured in the TR-FRET instrument, Analyst HT (Molecular Probes, Sunnyvale, Calif.) and the condition for measurements are set up using CriterionHost Release 2.0 (Molecular Probes, Sunnyvale, Calif.). The settings used are a follows: excitation 360 nm, emission 665-7.5 nm, beam splitter 350 nm 50/50, flash 100 pulses, delay 60 us, integration 400 us, z-height 2 mm. Inhibition of SYK-tyrosine kinase activity is calculated as the maximum response observed in the presence of inhibitor, compared to that in the absence of inhibitor. IC50s were derived by non-linear regression analysis.

CC[C@@H](Nc1nc(Nc2ccc3ncsc3c2)c(C(N)=O)c(=O)[nH]1)C(N)=O [Example 31]
IC50: < 1 nM

CC(C)C[C@@H](Nc1nc(Nc2cccc(-n3cccn3)c2)c(C(N)=O)c(=O)[nH]1)C(N)=O [Example 32]
IC50: 1 to 10 nM

CC(C)[C@@H](Nc1nc(Nc2cccc(-n3cccn3)c2)c(C(N)=O)c(=O)[nH]1)C(N)=O [Example 33]
IC50: 1 to 10 nM

CC[C@@H](Nc1nc(Nc2cccc(-n3cccn3)c2)c(C(N)=O)c(=O)[nH]1)C(N)=O [Example 34]
IC50: 1 to 10 nM

CC(C)C[C@@H](Nc1nc(Nc2ccc3cn[nH]c3c2)c(C(N)=O)c(=O)[nH]1)C(N)=O [Example 35, (R)-4-(1H-indazol-6-ylamino)-2-(1-amino-4-methyl-1-oxopentan-2-ylamino)-6-oxo-1,6-dihydropyrimidine-5-carboxamide]
IC50: < 1 nM

CC[C@@H](Nc1nc(Nc2ccc3cn[nH]c3c2)c(C(N)=O)c(=O)[nH]1)C(N)=O [Example 36]
IC50: < 1 nM

NC(=O)c1c(Nc2cccc(-n3nccn3)c2)nc(N[C@@H]2CCCNC2)[nH]c1=O [Example 37]
IC50: < 1 nM

NC(=O)c1c(Nc2cccc(-c3ncccn3)c2)nc(N[C@@H]2CCCC[C@@H]2N)[nH]c1=O [Example 38]
IC50: 1 to 10 nM

CC[C@@H](Nc1nc(Nc2cccc(OC)c2)c(C(N)=O)c(=O)[nH]1)C(N)=O [Example 39, (R)-2-(1-amino-1-oxobutan-2-ylamino)-4-(3-(methoxy)phenylamino)-6-oxo-1,6-dihydropyrimidine-5-carboxamide]
IC50: 1 to 10 nM

CC(C)C[C@@H](Nc1nc(Nc2cccc(-c3ccccn3)c2)c(C(N)=O)c(=O)[nH]1)C(N)=O [Example 40, (R)-2-(1-amino-4-methyl-1-oxopentan-2-ylamino)-6-oxo-4-(3-(pyridin-2-yl)phenylamino)-1,6-dihydropyrimidine-5-carboxamide]
IC50: 1 to 10 nM

CC[C@@H](Nc1nc(Nc2cccc(-c3ccccn3)c2)c(C(N)=O)c(=O)[nH]1)C(N)=O [Example 41, (R)-2-(1-amino-1-oxobutan-2-ylamino)-6-oxo-4-(3-(pyridin-2-yl)phenylamino)-1,6-dihydropyrimidine-5-carboxamide]
IC50: 1 to 10 nM

NC(=O)c1c(Nc2ccc(S(N)(=O)=O)cc2)nc(NC2CC2)[nH]c1=O [Example 42, 2-(cyclopropylamino)-6-oxo-4-(4-sulfamoylphenylamino)-1,6-dihydropyrimidine-5-carboxamide]
IC50: 10 to 100 nM

CC(=O)N(C)c1ccc(Nc2nc(NC3CC3)[nH]c(=O)c2C(N)=O)cc1 [Example 43, 2-(cyclopropylamino)-4-(4-(N-methylacetamido)phenylamino)-6-oxo-1,6-dihydropyrimidine-5-carboxamide]
IC50: > 1000 nM

NC(=O)c1c(NC2CC2)nc(Nc2ccc(S(N)(=O)=O)cc2)[nH]c1=O [Example 44, 4-(cyclopropylamino)-6-oxo-2-(4-sulfamoylphenylamino)-1,6-dihydropyrimidine-5-carboxamide]
IC50: > 1000 nM

NC(=O)c1c(NC2CCC2)nc(Nc2ccc(S(N)(=O)=O)cc2)[nH]c1=O [Example 45, 4-(cyclobutylamino)-6-oxo-2-(4-sulfamoylphenylamino)-1,6-dihydropyrimidine-5-carboxamide]
IC50: > 1000 nM

CC(=O)N1CCN(c2ccc(Nc3nc(Nc4ccc(N5CCN(C(C)=O)CC5)cc4)c(C(N)=O)c(=O)[nH]3)cc2)CC1 [Example 46, 2,4-bis(4-(4-acetylpiperazin-1-yl)phenylamino)-6-oxo-1,6-dihydropyrimidine-5-carboxamide]
IC50: > 1000 nM

CC(=O)N1CCN(c2ccc(Nc3nc(NC4CCC4)c(C(N)=O)c(=O)[nH]3)cc2)CC1 [Example 47, 2-(4-(4-acetylpiperazin-1-yl)phenylamino)-4-(cyclobutylamino)-6-oxo-1,6-dihydropyrimidine-5-carboxamide]
IC50: > 1000 nM

NC(=O)c1c(O)nc(NC2CCCCC2N)nc1NC1CC1 (centres unmarked) [Example 48, 2-(2-aminocyclohexylamino)-4-(cyclopropylamino)-6-hydroxypyrimidine-5-carboxamide]
IC50: > 1000 nM

Cc1cc(C)cc(Nc2nc(NCC(N)=O)[nH]c(=O)c2C(N)=O)c1 [Example 49, 2-(2-amino-2-oxoethylamino)-4-(3,5-dimethylphenylamino)-6-oxo-1,6-dihydropyrimidine-5-carboxamide]
IC50: 10 to 100 nM

COc1nc(NCC(N)=O)nc(Nc2cc(C)cc(C)c2)c1C(N)=O [Example 50, 2-(2-amino-2-oxoethylamino)-4-(3,5-dimethylphenylamino)-6-methoxypyrimidine-5-carboxamide]
IC50: 100 to 1000 nM

C[C@H](N)CNc1nc(Nc2ccc3ncccc3c2)c(C(N)=O)c(=O)[nH]1 [Example 51, (S)-2-(2-aminopropylamino)-6-oxo-4-(quinolin-6-ylamino)-1,6-dihydropyrimidine-5-carboxamide]
IC50: 1 to 10 nM

CCNc1nc(Nc2cccc(C)c2)c(C(N)=O)c(OCCCN)n1 [Example 52, 4-(m-toluidino)-6-(3-aminopropoxy)-2-(ethylamino)pyrimidine-5-carboxamide]
IC50: > 1000 nM

Cc1cccc(Nc2nc(NC[C@H](C)N)nc(OCCO)c2C(N)=O)c1 [Example 53, (S)-4-(m-toluidino)-2-(2-aminopropylamino)-6-(2-hydroxyethoxy)pyrimidine-5-carboxamide]
IC50: > 1000 nM

Cc1cc(C)cc(Nc2nc(NC[C@H](C)N)[nH]c(=O)c2C(N)=O)c1 [Example 54, (S)-2-(2-aminopropylamino)-4-(3,5-dimethylphenylamino)-6-oxo-1,6-dihydropyrimidine-5-carboxamide]
IC50: > 1000 nM

Cc1cc(C)cc(Nc2nc(N[C@H](CC(C)C)C(N)=O)[nH]c(=O)c2C(N)=O)c1 [Example 55, (R)-2-(1-amino-4-methyl-1-oxopentan-2-ylamino)-4-(3,5-dimethylphenylamino)-6-oxo-1,6-dihydropyrimidine-5-carboxamide]
IC50: > 1000 nM

Cc1cc(C)cc(Nc2nc(N[C@H](C)C(N)=O)[nH]c(=O)c2C(N)=O)c1 [Example 56, (R)-2-(1-amino-1-oxopropan-2-ylamino)-4-(3,5-dimethylphenylamino)-6-oxo-1,6-dihydropyrimidine-5-carboxamide]
IC50: > 1000 nM

Cc1cc(C)cc(Nc2nc(NC3CCCCC3N)[nH]c(=O)c2C(N)=O)c1 (centres unmarked) [Example 57, 2-(2-aminocyclohexylamino)-4-(3,5-dimethylphenylamino)-6-oxo-1,6-dihydropyrimidine-5-carboxamide]
IC50: 100 to 1000 nM

CC(=O)N(C)c1ccc(Nc2nc(NC3CC3)c(C(N)=O)c(=O)[nH]2)cc1 [Example 58, 4-(cyclopropylamino)-2-(4-(N-methylacetamido)phenylamino)-6-oxo-1,6-dihydropyrimidine-5-carboxamide]
IC50: > 1000 nM

CC(=O)N1CCN(c2ccc(Nc3nc(Nc4cc(C)cc(C)c4)c(C(N)=O)c(=O)[nH]3)cc2)CC1 [Example 59, 2-(4-(4-acetylpiperazin-1-yl)phenylamino)-4-(3,5-dimethylphenylamino)-6-oxo-1,6-dihydropyrimidine-5-carboxamide]
IC50: > 1000 nM

Cc1cc(C)cc(Nc2nc(NC3CC3)[nH]c(=O)c2C(N)=O)c1 [Example 60, 2-(cyclopropylamino)-4-(3,5-dimethylphenylamino)-6-oxo-1,6-dihydropyrimidine-5-carboxamide]
IC50: > 1000 nM

Cc1cc(C)cc(Nc2nc(Nc3ccc(S(N)(=O)=O)cc3)[nH]c(=O)c2C(N)=O)c1 [Example 61, 4-(4-(3,5-dimethylphenylamino)-5-carboxamide-6-oxo-1,6-dihydropyrimidin-2-ylamino)benzenesulfonamide]
IC50: 100 to 1000 nM

CC(=O)N1CCN(c2ccc(Nc3nc(NC4CC4)c(C(N)=O)c(=O)[nH]3)cc2)CC1 [Example 62, 2-(4-(4-acetylpiperazin-1-yl)phenylamino)-4-(cyclopropylamino)-6-oxo-1,6-dihydropyrimidine-5-carboxamide]
IC50: > 1000 nM
